Experimental data from patent US8822517B2, “Arylosulfonamides for the treatment of CNS diseases” (Adamed SP. Z O.O., priority 2010, dated 2014).

Experiments:
[1] = target: T1, muscarinic M3 receptor (Homo sapiens, UniProt P20309); assay: Binding assay M3 (h), [3H]4-DAMP, CHO cells; details: read-out: M3 [%]
T1 construct: expressed in transfected cells; host or cells: CHO cells
Method in brief: (§1)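 Total binding and binding under an excess of unlabelled competitor were both measured, the difference giving specific binding. Counts came from scintillation detection, and compound concentration was 1×10^−6 M.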

[2] = target: T2, serotoninergic receptor 5-HT2C (Homo sapiens, UniProt P28335); assay: Binding assay 5-HT2C (h), [3H]mesulergine, HEK-293 cells; details: read-out: 5-HT2C [%]
T2 construct: expressed in transfected cells; host or cells: HEK-293 cells
T2 sequence (P28335 33-458): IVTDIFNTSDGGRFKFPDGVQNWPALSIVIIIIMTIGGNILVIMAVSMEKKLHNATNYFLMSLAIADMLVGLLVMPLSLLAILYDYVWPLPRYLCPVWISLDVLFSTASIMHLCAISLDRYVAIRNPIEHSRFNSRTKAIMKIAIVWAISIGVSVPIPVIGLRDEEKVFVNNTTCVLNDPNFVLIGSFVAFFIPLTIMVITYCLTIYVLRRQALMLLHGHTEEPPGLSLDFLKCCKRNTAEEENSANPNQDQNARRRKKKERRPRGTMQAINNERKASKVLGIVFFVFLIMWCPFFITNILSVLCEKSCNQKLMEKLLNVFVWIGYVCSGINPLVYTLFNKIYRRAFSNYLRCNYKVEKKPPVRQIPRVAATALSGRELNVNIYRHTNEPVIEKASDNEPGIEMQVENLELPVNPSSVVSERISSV
Method in brief: as §1

[3] = target: serotoninergic 5-HT2A receptor (Homo sapiens, UniProt P28223); assay: Cellular functional assay, serotoninergic 5-HT2A receptor (agonism/antagonism); type: cell-based; details: for activation at 1 µM: read-out: 5-HT2A -ag [%]; for inhibition at 1 µM: read-out: 5-HT2A -antag [%]
Method: […]. The compounds were tested at the concentration of 1×10^−6M.
Conditions and methodology (by reference to the literature) of cellular functional assays are given in Table 13 and the tests results for representative compounds are given in Table 14 (dopaminergic receptor D2), in Table 15 (dopaminergic receptor D3), in Table 16 (serotoninergic receptor 5-HT1A), in Table 17 (serotoninergic receptor 5-HT2A), in Table 18 (serotoninergic receptor 5-HT6), in Table 19 (serotoninergic receptor 5-HT7), in Table 20 (adrenergic α1 receptor), in Table 21 (adrenergic α2C receptor), in Table 22 (histaminergic H1 receptor) and in Table 23 (serotoninergic 5-HT2C receptor). In the Tables ag refers to agonism, and antag to antagonism).

[4] = target: T3, serotoninergic 5-HT6 receptor (Homo sapiens, UniProt P50406); assay: Cellular functional assay, serotoninergic 5-HT6 receptor (agonism/antagonism); type: cell-based; details: for activation at 1 µM: agonist effect, percent of control specific agonist response, compounds tested at 1×10^−6M, read-out: 5-HT6-ag [%]; for inhibition at 1 µM: read-out: 5-HT6-antag. [%]
Method: (§2) The compounds were tested at the concentration of 1×10^−6M.
(§3) In the Tables ag refers to agonism, and antag to antagonism).

[5] = target: T4, adrenergic α2C receptor (Homo sapiens, UniProt P18825); assay: Cellular functional assay, adrenergic α2C receptor (agonism/antagonism); type: cell-based; details: for activation at 1 µM: agonist effect, percent of control specific agonist response, compounds tested at 1×10^−6M, read-out: α2C −ag [%]; for inhibition at 1 µM: read-out: α2C −antag. [%]
T4 sequence (P18825 1-462): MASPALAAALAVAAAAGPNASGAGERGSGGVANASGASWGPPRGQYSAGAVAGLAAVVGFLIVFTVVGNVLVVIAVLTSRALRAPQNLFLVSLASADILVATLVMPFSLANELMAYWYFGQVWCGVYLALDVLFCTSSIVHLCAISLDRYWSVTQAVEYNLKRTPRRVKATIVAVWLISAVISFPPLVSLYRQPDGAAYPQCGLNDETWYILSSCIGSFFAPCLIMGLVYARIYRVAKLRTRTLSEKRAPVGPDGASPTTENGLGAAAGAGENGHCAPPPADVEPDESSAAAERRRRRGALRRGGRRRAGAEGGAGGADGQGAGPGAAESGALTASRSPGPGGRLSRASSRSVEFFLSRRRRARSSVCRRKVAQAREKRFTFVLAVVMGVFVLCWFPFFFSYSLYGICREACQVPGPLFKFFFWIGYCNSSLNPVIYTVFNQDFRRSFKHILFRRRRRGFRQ
Method: as §2, §3

[6] = target: T5, dopaminergic D3 receptor (Homo sapiens, UniProt P35462); assay: Binding assay D3 (h), [3H]methyl-spiperone, CHO cells; parameters: expressed in transfected cells; host or cells: CHO cells; details: read-out: D3 [%]
Method in brief: as §1

[7] = target: T3, serotoninergic 5-HT6 receptor; assay: Binding assay 5-HT6 (h), [3H]LSD, CHO cells; parameters: expressed in transfected cells; host or cells: CHO cells; details: read-out: 5-HT6
Method in brief: as §1

[8] = target: serotoninergic 5-HT7 receptor (Homo sapiens, UniProt P34969); assay: Binding assay 5-HT7 (h), [3H]LSD, CHO cells; parameters: expressed in transfected cells; host or cells: CHO cells; details: read-out: 5-HT7
Method in brief: as §1

[9] = target: T4, adrenergic α2C receptor; assay: Binding assay α2C (h), [3H]RX 821002, CHO cells; parameters: expressed in transfected cells; host or cells: CHO cells; details: read-out: α2C [%]
Method in brief: as §1

[10] = target: histaminergic H1 receptor (Homo sapiens, UniProt P35367); assay: Binding assay H1 (h), [3H]pyrilamine, HEK-293 cells; parameters: expressed in transfected cells; host or cells: HEK-293 cells; details: read-out: H1 [%]
Method in brief: as §1

[11] = target: T5, dopaminergic D3 receptor; assay: Cellular functional assay, dopaminergic D3 receptor (agonism/antagonism); type: cell-based; details: for inhibition at 1 µM: CHO, read-out: D3-antag. [%]; for activation at 1 µM: agonist effect, percent of control specific agonist response (300 nM dopamine for control), 1×10^−6 M, D3 (h), CHO cells, read-out: D3-ag [%]
Method: as §2, §3

T1 sequence (P20309 whole entry): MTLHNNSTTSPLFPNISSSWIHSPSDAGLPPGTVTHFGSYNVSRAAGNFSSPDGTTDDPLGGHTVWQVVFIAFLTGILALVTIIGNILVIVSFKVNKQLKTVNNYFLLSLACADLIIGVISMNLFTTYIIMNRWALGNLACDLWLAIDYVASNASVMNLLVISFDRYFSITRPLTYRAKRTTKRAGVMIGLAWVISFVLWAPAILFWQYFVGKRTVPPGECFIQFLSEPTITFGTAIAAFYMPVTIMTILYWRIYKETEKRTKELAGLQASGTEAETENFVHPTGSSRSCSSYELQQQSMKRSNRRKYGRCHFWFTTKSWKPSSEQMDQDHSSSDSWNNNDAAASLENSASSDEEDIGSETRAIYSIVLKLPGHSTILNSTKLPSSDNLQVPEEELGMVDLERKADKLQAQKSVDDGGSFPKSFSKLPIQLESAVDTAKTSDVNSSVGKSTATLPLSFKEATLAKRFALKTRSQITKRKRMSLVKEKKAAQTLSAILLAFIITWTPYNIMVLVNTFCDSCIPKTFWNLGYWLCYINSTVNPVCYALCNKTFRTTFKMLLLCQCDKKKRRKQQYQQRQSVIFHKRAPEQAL
T3 sequence (P50406 whole entry): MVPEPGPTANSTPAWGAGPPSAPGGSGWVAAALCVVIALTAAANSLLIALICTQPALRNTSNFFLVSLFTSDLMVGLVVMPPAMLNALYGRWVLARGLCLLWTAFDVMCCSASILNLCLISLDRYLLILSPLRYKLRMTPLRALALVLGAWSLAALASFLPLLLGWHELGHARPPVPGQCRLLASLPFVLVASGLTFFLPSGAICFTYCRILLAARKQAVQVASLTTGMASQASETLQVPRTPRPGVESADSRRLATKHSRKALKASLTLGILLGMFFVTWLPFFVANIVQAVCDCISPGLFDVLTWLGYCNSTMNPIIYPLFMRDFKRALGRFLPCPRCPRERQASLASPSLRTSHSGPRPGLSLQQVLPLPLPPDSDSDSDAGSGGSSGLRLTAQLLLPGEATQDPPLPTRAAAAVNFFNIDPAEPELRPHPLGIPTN
T5 sequence (P35462 whole entry): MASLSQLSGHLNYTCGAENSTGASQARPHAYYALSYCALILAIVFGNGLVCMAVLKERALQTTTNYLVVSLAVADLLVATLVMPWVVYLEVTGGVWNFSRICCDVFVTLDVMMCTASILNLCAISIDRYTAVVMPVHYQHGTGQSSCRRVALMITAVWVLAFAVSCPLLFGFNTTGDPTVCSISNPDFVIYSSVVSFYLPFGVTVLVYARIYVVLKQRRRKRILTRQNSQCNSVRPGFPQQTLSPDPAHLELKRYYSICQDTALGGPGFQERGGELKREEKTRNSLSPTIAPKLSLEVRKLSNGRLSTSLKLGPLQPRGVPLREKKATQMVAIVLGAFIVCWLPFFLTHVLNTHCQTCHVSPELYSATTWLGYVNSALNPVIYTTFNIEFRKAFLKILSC
Chain of serotoninergic 5-HT2A receptor (P28223 whole entry): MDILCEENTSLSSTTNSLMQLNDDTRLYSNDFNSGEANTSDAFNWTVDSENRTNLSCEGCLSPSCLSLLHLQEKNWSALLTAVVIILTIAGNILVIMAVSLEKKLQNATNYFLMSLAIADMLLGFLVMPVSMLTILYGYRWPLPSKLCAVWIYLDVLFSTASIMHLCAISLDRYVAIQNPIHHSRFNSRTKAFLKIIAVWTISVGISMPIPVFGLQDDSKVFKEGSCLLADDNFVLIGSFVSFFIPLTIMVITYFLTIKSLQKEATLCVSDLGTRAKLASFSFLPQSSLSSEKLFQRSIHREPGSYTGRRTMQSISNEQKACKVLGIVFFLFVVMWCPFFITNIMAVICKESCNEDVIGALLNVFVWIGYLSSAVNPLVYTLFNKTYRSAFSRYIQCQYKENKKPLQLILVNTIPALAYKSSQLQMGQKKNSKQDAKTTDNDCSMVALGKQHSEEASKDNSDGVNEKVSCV
Chain of histaminergic H1 receptor (P35367 whole entry): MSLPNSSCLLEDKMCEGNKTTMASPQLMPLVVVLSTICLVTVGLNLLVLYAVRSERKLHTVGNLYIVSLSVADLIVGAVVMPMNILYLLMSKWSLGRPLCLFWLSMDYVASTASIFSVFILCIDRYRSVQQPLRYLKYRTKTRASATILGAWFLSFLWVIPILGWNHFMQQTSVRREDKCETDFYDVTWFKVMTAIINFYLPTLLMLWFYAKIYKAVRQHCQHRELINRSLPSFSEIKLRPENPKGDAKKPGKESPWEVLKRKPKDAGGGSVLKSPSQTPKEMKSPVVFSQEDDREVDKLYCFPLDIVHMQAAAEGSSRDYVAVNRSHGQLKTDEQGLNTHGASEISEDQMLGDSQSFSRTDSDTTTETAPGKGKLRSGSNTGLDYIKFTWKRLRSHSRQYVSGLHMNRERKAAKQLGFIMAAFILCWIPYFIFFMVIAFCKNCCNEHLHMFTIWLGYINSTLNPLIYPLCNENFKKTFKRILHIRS
Chain of serotoninergic 5-HT7 receptor (P34969 whole entry): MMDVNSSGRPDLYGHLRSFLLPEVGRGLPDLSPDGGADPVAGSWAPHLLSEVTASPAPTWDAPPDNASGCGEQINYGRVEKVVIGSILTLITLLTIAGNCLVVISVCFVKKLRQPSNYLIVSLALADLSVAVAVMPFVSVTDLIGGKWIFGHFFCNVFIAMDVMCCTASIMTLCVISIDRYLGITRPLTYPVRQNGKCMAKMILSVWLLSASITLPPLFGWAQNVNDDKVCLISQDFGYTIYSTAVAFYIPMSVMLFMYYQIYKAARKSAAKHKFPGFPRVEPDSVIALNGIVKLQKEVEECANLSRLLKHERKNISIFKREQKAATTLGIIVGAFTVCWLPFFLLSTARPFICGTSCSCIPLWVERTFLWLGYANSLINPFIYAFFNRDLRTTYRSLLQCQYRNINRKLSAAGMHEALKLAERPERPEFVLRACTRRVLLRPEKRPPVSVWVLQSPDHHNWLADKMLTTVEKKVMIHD

| SMILES | inhibition at 1 µM [1] | inhibition at 1 µM [2] | activation at 1 µM [3] | inhibition at 1 µM [3] | activation at 1 µM [4] | inhibition at 1 µM [4] | activation at 1 µM [5] | inhibition at 1 µM [5] | inhibition at 1 µM [6] | inhibition at 1 µM [7] | inhibition at 1 µM [8] | inhibition at 1 µM [9] | inhibition at 1 µM [10] | inhibition at 1 µM [11] | activation at 1 µM [11] |
| --- | --- | --- | --- | --- | --- | --- | --- | --- | --- | --- | --- | --- | --- | --- | --- |
| O=S(=O)(NCCCCN1CCN(c2noc3ccccc23)CC1)c1cccc2ccccc12 [Compound 13, N-(4-(4-(1,2-Benzoxazol-3-yl)piperazin-1-yl)butyl)naphthalene-1-sulphonamide] | -1% | 34% | 2% | 100% | 1% | 56% | -7% | 18% | 92% | 96% | 100% | 99% | 84% | – | – |
| O=c1[nH]c2ccc(S(=O)(=O)NCCCCN3CCN(c4noc5ccccc45)CC3)cc2o1 [Compound 16, N-(4-(4-(1,2-Benzoxazol-3-yl)piperazin-1-yl)butyl)-2-oxo-3H-1,3-benzoxazole-6-sulphonamide] | -1% | 53% | -1% | 98% | 0% | 50% | -7% | 9% | 99% | 94% | 99% | 101% | 97% | – | – |
| O=S(=O)(NCCCCN1CCN(c2cccc3[nH]ccc23)CC1)c1ccccc1 [Compound 27, N-{4-[4-(1H-Indol-4-yl)piperazin-1-yl]butyl}benzenesulphonamide] | 46% | -1% | – | – | – | – | 3% | 31% | 96% | 34% | 92% | 100% | 27% | – | – |
| O=S(=O)(NCCCCN1CCN(c2cccc3[nH]ccc23)CC1)c1cccc(F)c1 [Compound 28, 3-Fluoro-N-{4-[4-(1H-indol-4-yl)piperazin-1-yl]butyl}benzenesulphonamide] | 50% | 6% | – | – | 0% | 53% | 4% | 27% | 99% | 98% | 92% | 92% | 57% | -2% | 59% |
| Cc1c(S(=O)(=O)NCCCCN2CCN(c3nsc4ccccc34)CC2)sc2ccc(F)cc12 [Compound 65, N-[4-[4-(1,2-Benzothiazol-3-yl)piperazin-1-yl]butyl]-5-fluoro-3-methylbenzothiophene-2-sulphonamide] | 8% | 95% | -2% | 98% | -1% | 81% | 8% | 20% | 74% | 97% | 98% | 104% | 95% | – | – |
| O=c1[nH]c2cccc(N3CCN(CCCNS(=O)(=O)c4cccc5ccccc45)CC3)c2[nH]1 [Compound 423, N-[3-[4-(2-oxo-1,3-dihydrobenzimidazol-4-yl)piperazin-1-yl]propyl]naphthalene-1-sulphonamide] | -1% | 9% | – | – | – | – | – | – | 98% | 16% | 88% | 69% | 16% | 22% | 70% |
| O=c1[nH]c2cccc(N3CCN(CCCNS(=O)(=O)c4ccc5ccccc5c4)CC3)c2[nH]1 [Compound 424, N-[3-[4-(2-oxo-1,3-dihydrobenzimidazol-4-yl)piperazin-1-yl]propyl]naphthalene-2-sulphonamide] | 7% | 8% | – | – | – | – | – | – | 98% | 69% | 95% | 67% | 28% | 18% | 70% |
